Assay results from patent US10022358B2, “Methods for improving muscle and heart function” (BioVentures, LLC, priority 2013, dated 2018).
“Also recorded” adds a separate entry of the source.

Columns and labels:
[1] = tested on: carnitinepalmitoyltransferase (CPT)-1; assay: CPT-1 activity in heart mitochondria of old animals treated with oral propionyl-L-carnitine (FIG. 8); type: in vivo, rodent; conditions: old hearts, oral treatment, p<0.02, n=6
Description: FIG. 8 depicts graphs showing carnitinepalmitoyltransferase (CPT)-1activity decreases with age in mitochondria (2 vs 18 mos, p<0.004).
Appropriate regulation of energy substrate metabolism not only involves relatively normal insulin sensitivity, but also adequate number and functional capacity of mitochondria. One aspect of mitochondrial function is the rate of production of mitochondrial proteins. […] In addition to adequate protein content in mitochondria, it is necessary that substrates, particularly long-chain fatty acids, are not limited in their ability to enter the mitochondria, or in their complete oxidation once inside the mitochondria. The capacity to oxidize fatty acids is reduced in patients with major inflammatory responses due to reduced carnitine palmitoyltransferase 1 (CPT1) activity. Unimpaired capacity to oxidize fatty acids is important because the energy to perform low-intensity exercise, including activities of daily living that individuals with heart failure often struggle with, is provided by the oxidation of fatty acids.

[2] = tested on: muscle protein synthesis; conditions: cited from earlier work
[3] = tested on: patients with heart failure; conditions: dietary supplementation; cited from earlier work
[4] = tested on: nitric oxide (NO) synthesis; assay: Isotopic tracer study of plasma arginine and NO synthesis during citrulline ingestion (FIG. 5); type: in vivo, human
Description: FIG. 5 depicts plasma arginine responses (A) and nitric oxide (NO) synthesis rates (B) in basal period and during ingestion of 3 g of citrulline (CIT) sip ingestion over 3 hours in elderly (n=8, 77±9y, 93±4 kg) and young individuals (n=8, 27±9y, 70±5 kg).
Briefly, elderly (n=8, 77±9y, 93±4 kg) and young individuals (n=8, 27±9y, 70±5 kg) ingested 3 grams of citrulline over 3 hours and plasma arginine response and nitric oxide (NO) synthesis rates were quantified. […] Thus, oral ingestion of citrulline is very effective in increasing peripheral arginine concentration and NO synthesis in elderly subjects with heart failure.

[5] = tested on: mitochondrial biogenesis; conditions: cited from earlier work
[6] = 3 g citrulline sip ingestion over 3 hours, elderly and young

CCC(=O)O[C@H](CC(=O)[O-])C[N+](C)(C)C [propionyl-L-carnitine]
CPT-1 activity in mitochondria [1]: can restore CPT-1 activity to that of young hearts; also recorded: restored CPT to that of young hearts

N=C(N)NCCC[C@H](N)C(=O)O [arginine]
effect on muscle protein synthesis when NO synthesis pharmacologically blocked [2]: effective even when given when NO synthesis was pharmacologically blocked
blood pressure [3]: reduces blood pressure
duration until exhaustion on a treadmill walk [3]: increased duration until exhaustion
right ventricular function [3]: improves right ventricular function

NC(=O)NCCC[C@H](N)C(=O)O [citrulline]
nitric oxide (NO) synthesis rate [4, 6]: stimulated production of NO
plasma arginine response [4, 6]: effectively increased the concentration of arginine in the blood
increase in NO synthesis in elderly ([4]; elderly with heart failure, 3 g citrulline over 3 hours): physiologically significant

CC(C)C[C@H](N)C(=O)O [leucine]
mitochondrial biogenesis [5]: stimulate mitochondrial biogenesis
